Results: article PMC7922224, “Searching for Small Molecules as Antibacterials: Non-Cytotoxic Diarylureas Analogues of Triclocarban” (Antibiotics, 2021)
Converted amounts (≈) assume the structure as drawn.

Legend:
E. faecalis ATCC 29212 [1] = experiment: MIC by broth microdilution (CLSI); assay type: cell-based, Enterococcus faecalis; conditions: Enterococcus faecalis, ATCC29212; Gram-positive; 37 °C, 24 h, Mueller Hinton Broth; read-out: MIC E.f. 29212
Experimental: (§1) The in vitro Minimum Inhibitory Concentrations (MICs, μg/mL) were determined by the broth microdilution method according to the Clinical Laboratory Standards Institute (CLSI) guidelines. MIC values were recorded as the lowest concentration of compounds at which there was no optically detectable microorganism growth and evaluated by comparing the growth in each well visually with that of the growth in the control well for bacteria. All compounds were dissolved in dimethyl sulfoxide (DMSO) and were tested in a final concentration range of from 512 to 2 µg/mL. MICs for the reference antibiotic norfloxacin against quality control strains were used to confirm the validity of the screen. According to the CLSI guidelines, diphenylureas were tested in vitro against a panel of Gram-positive and Gram-negative bacteria belonging to the ATCC collection using the standard microdilution test for the determination of MICs. MICs of the synthesised compounds along with the parent compound TCC and with the standard antibiotic norfloxacin are listed in Table 1. The compounds were also analyzed in terms of molecular mass, logP (Table 1), number of hydrogen-bond donors and number of hydrogen-bond acceptors, and most of them obeyed Lipinski’s rule. […] Based on our results, it seems that the 3,4-dichloro-disubstitution pattern, which is present in TCC, is not crucial for activity. […] Moreover, the activity against Enterococcus faecalis was interesting. E. faecalis is a ubiquitous member of the healthy human gut microbiota and also a common opportunistic pathogen and leading cause of nosocomial infections. It has a high incidence for most infections, and the case numbers have been increasing in recent decades, likely due to its greater ability to persist in healthcare facilities and its higher abundance in the human gut microbiome. Kim et al. (2016) compared the bactericidal effects of plain and antibacterial soap containing 0.3% TCC. The authors found no significative difference between the effects of plain and medicated soap at either temperature, with the only exception of E. faecalis ATCC 19433 at 40 °C.
(§2) MICs (μg/mL) were determined by the broth microdilution method, using 96-well plates, according to CLSI [26]. Stock solutions of the investigated compounds were obtained by setting the concentration at the maximum possible value. Then, the stock solutions were diluted 1:10 with Mueller Hinton Broth (Oxoid, Italy). Afterwards, twofold serial dilutions in the suitable test medium were carried out to obtain a set of concentrations from 512 to 2 µg/mL in the wells. To obtain the stock solution, DMSO (100%) was employed as diluent. The following bacteria strains, available as freeze-dried discs, belonging to the ATCC collection, were used: Gram-positive: S. aureus ATCC 29213, 6538, and 6538P, E. faecalis ATCC 29212; Gram-negative: K. pneuomoniae ATCC 13883, P. aeruginosa ATCC 27853. To conserve the purity of cultures and to enable their reproducibility, cryovials of all microbial strains in the medium were set up and stored at −80 °C. Pre-cultures of each bacterial strain were prepared in Mueller Hinton Broth (MHB) and incubated at 37 °C for 3–5 h. The turbidity of bacterial cell suspension was calibrated to 0.5 McFarland Standard by the spectrophotometric method (OD 625 nm 0.08–0.10), as indicated in the CLSI protocol M7-A9 and, further, the standardized suspension was diluted (1:100) with MHB to reach 1–2 × 10^6 CFU/mL. All wells were seeded with 100 µl of the mentioned final inoculum, and some wells contained only inoculated broth as control growth. […] The MICs were determined by using the assay repeated twice in triplicate. Throughout the study, norfloxacin was used as reference antibiotic. Appropriate controls involved norfloxacin for bacteria as international reference standard. […]

S. aureus ATCC 29213 [2] = experiment: MIC by broth microdilution (CLSI); assay type: cell-based, Staphylococcus aureus; conditions: Staphylococcus aureus, ATCC29213; Gram-positive; 37 °C, 24 h, Mueller Hinton Broth
Experimental: as §1, §2

S. aureus ATCC 6538 = experiment: MIC by broth microdilution (CLSI); assay type: cell-based, Staphylococcus aureus; conditions: Staphylococcus aureus, ATCC6538; Gram-positive; 37 °C, 24 h, Mueller Hinton Broth
Experimental: as §1, §2

S. aureus ATCC 6538P = experiment: MIC by broth microdilution (CLSI); assay type: cell-based, Staphylococcus aureus; conditions: Staphylococcus aureus, ATCC6538P; Gram-positive; 37 °C, 24 h, Mueller Hinton Broth
Experimental: as §1, §2

Staphylococcus aureus = experiment: MIC by broth microdilution, S. aureus (strain not given); assay type: cell-based; conditions: strain not specified (best value among the ATCC strains), read-out: MIC against S. aureus
Experimental: as §1, §2

K. pneumoniae ATCC 13883 [3] = experiment: MIC by broth microdilution (CLSI); assay type: cell-based; conditions: Klebsiella pneumoniae, ATCC13883; Gram-negative; 37 °C, 24 h, Mueller Hinton Broth; read-out: MIC K.p. 13883
Experimental: as §1, §2

P. aeruginosa ATCC 27853 [4] = experiment: MIC by broth microdilution (CLSI); assay type: cell-based; conditions: Pseudomonas aeruginosa, ATCC27853; Gram-negative; 37 °C, 24 h, Mueller Hinton Broth
Experimental: as §1, §2

E. coli 25922 [5] = experiment: MIC by broth microdilution (CLSI); assay type: cell-based; conditions: Escherichia coli, Gram-negative, 37 °C, 24 h, Mueller Hinton Broth
[6] = tested on: cancer cell lines (MCF-7, MDA-MB-231, HeLa, Ishikawa, A2058); experiment: MTT cell viability assay, panel of cancer cell lines; assay type: cell-based; conditions: Homo sapiens, all cancer cell lines used, 72 h, read-out: IC50 against the cancer cell lines
Excerpt: In order to investigate the anticancer effects of compounds 1ab, 1bc and 1ce (TCC), we used different human cancer cell models, namely, two breast cancer cells (MCF-7 and MDA-MB-231), two uterine cancer cells (HeLa and Ishikawa) and the melanoma epithelial cells A2058.
(§3) Human MCF-7 and MDA-MB-231 breast cancer cells, HeLa and […] uterine carcinoma cells, A2058 melanoma epithelial cells, MCF-10A mammary epithelial cells and Hek-293 embryonic kidney epithelial cells were obtained from American Type Culture Collection (ATCC, Manassas, VA, USA). Estrogen receptor positive [(ER(+)] MCF-7 and triple negative MDA-MB-231 breast cancer cells were maintained in Dulbecco’s modified Eagle’s medium/nutrient mixture F-12 Ham (DMEM-F12) medium containing 2 mmol/L L-glutamine, 1 mg/mL penicillin-streptomycin and supplemented with 5% fetal bovine serum (FBS). HeLa epithelial cervix carcinoma cells, estrogen receptor negative [ER(-)], and Ishikawa endometrial adenocarcinoma cell, estrogen receptor positive [ER(+)], were kept in minimum essential medium (MEM), supplemented with 10% FBS, 100 U/mL penicillin/streptomycin and 1% non-essential amino acid. A2058 highly metastatic melanoma epithelial cells were kept in DMEM low glucose (1 g/L), supplemented with 20% FBS, 1% l-glutamine and 100 U/mL penicillin/streptomycin. MCF-10A mammary epithelial cells, were cultured in DMEM/F12 medium, supplemented with 5% horse serum (HS), 100 U/mL penicillin/streptomycin, […] hydrocortisone, 20 ng/mL human epidermal growth factor (hEGF), […] and […] cholera enterotoxin (Sigma-Aldrich, Milan, Italy). Hek-293 embryonic kidney epithelial cells were cultured in DMEM high glucose (4.5 g/L), supplemented with 10% FBS, 1% l-glutamine and 100 U/mL penicillin/streptomycin. Cells were conserved at 37 °C in a humid atmosphere of 95% air and 5% CO2, and screened for contamination at regular intervals.
Cell viability was determined using the 3-(4,5-dimethylthiazol-2-y1)-2,5-diphenyltetrazolium bromide (MTT, Sigma-Aldrich, Milan, Italy) assay. […]

[7] = tested on: MCF-10A mammary epithelial cells; experiment: MTT cell viability assay; assay type: cell-based; conditions: Homo sapiens, normal cells, 72 h, mean ± SD of three independent experiments
Excerpt: as §3
(§4) Cell viability was determined using the 3-(4,5-dimethylthiazol-2-y1)-2,5-diphenyltetrazolium bromide (MTT, Sigma-Aldrich, Milan, Italy) assay. Cells were seeded on 48-well plates and grown in complete medium. Before treatment, cells were starved in serum free medium for 24 h to allow cell cycle synchronization. […] Data are representative of three independent experiments; standard deviations (SD) are shown.

[8] = tested on: A2058 melanoma epithelial cells; experiment: MTT cell viability assay; assay type: cell-based; conditions: Homo sapiens, 72 h, mean ± SD of three independent experiments
Excerpt: as §3, §4

[9] = tested on: Ishikawa uterine cancer cells; experiment: MTT cell viability assay; assay type: cell-based; conditions: Homo sapiens, 72 h, mean ± SD of three independent experiments
Excerpt: as §3, §4

[10] = tested on: HeLa uterine cancer cells; experiment: MTT cell viability assay; assay type: cell-based; conditions: Homo sapiens, 72 h, mean ± SD of three independent experiments
Excerpt: as §3, §4

[11] = tested on: Hek-293 embryonic kidney epithelial cells; experiment: MTT cell viability assay; assay type: cell-based; conditions: Homo sapiens, HEK293, normal cells, 72 h, mean ± SD of three independent experiments
Excerpt: as §3, §4

[12] = tested on: MDA-MB-231 breast cancer cells; experiment: MTT cell viability assay; assay type: cell-based; conditions: Homo sapiens, 72 h, mean ± SD of three independent experiments
Excerpt: as §3, §4

[13] = tested on: MCF-7 breast cancer cells; experiment: MTT cell viability assay; assay type: cell-based; conditions: Homo sapiens, MCF7, 72 h, mean ± SD of three independent experiments
Excerpt: as §3, §4

E. faecalis ATCC 29212 [14] = tested on: E. faecalis ATCC 29212; design: method as in earlier work; conditions: reference antibiotic, values according to CLSI (2012) ref 26; cited from earlier work
P. aeruginosa ATCC 27853 [15] = tested on: P. aeruginosa ATCC 27853; design: method as in earlier work; conditions: reference antibiotic, values according to CLSI (2012) ref 26; cited from earlier work
E. coli 25922 [16] = tested on: E. coli 25922; design: method as in earlier work; conditions: reference antibiotic, values according to CLSI (2012) ref 26; cited from earlier work
K. pneumoniae ATCC 13883 [17] = tested on: K. pneumoniae ATCC 13883; design: method as in earlier work; conditions: reference antibiotic, values according to CLSI (2012) ref 26; cited from earlier work
S. aureus ATCC 29213 [18] = tested on: S. aureus ATCC 29213; design: method as in earlier work; conditions: reference antibiotic, values according to CLSI (2012) ref 26; cited from earlier work

MIC (E. faecalis ATCC 29212 [1]) [µg/mL]	MIC (S. aureus ATCC 29213 [2]) [µg/mL]	MIC (S. aureus ATCC 6538) [µg/mL]	MIC (S. aureus ATCC 6538P) [µg/mL]	MIC (Staphylococcus aureus) [µg/mL]	MIC (K. pneumoniae ATCC 13883 [3]) [µg/mL]	MIC (P. aeruginosa ATCC 27853 [4]) [µg/mL]	MIC (E. coli 25922 [5]) [µg/mL]	IC50 [6] [µg/mL]	IC50 [8] [µg/mL]	IC50 [9] [µg/mL]	IC50 [10] [µg/mL]	IC50 [12] [µg/mL]	IC50 [13] [µg/mL]	melting point [°C]	SMILES	IC50 [7] [µg/mL]	IC50 [11] [µg/mL]	other results
64 (≈ 203 µM)	16 (≈ 50.7 µM)	128 (≈ 406 µM)	16 (≈ 50.7 µM)	16 (≈ 50.7 µM)	256 (≈ 811 µM)	256 (≈ 811 µM)	256 (≈ 811 µM)	0.64 to 1.68 (≈ 2.03 to 5.32 µM)	0.89 ± 0.7 (≈ 2.82 µM)	1.68 ± 0.9 (≈ 5.32 µM)	1.01 ± 1.1 (≈ 3.2 µM)	0.89 ± 0.8 (≈ 2.82 µM)	0.64 ± 0.5 (≈ 2.03 µM)		O=C(Nc1ccc(Cl)cc1)Nc1ccc(Cl)c(Cl)c1 [1ce (TCC), 1-(3,4-Dichlorophenyl)-3-(4-chlorophenyl)urea, reference compound]	1.43 ± 0.7 (≈ 4.53 µM)	1.6 ± 0.8 (≈ 5.07 µM)	
															CCn1cc(C(=O)O)c(=O)c2cc(F)c(N3CCNCC3)cc21 [NRF, norfloxacin]			MIC E.f. 29212 (E. faecalis ATCC 29212 [14]): 2 to 8 µg/mL; MIC P. a. 27853 (P. aeruginosa ATCC 27853 [15]): 1 to 4 µg/mL; MIC E.c. 25922 (E. coli 25922 [16]): 0.03 to 0.12 µg/mL; MIC K.p. 13883 (K. pneumoniae ATCC 13883 [17]): 0.5 to 1 µg/mL; MIC S.a. 29213 (S. aureus ATCC 29213 [18]): 0.5 to 2 µg/mL
32 (≈ 126 µM)	> 256	16 (≈ 62.9 µM)	16 (≈ 62.9 µM)	16 (≈ 62.9 µM)	> 256	> 256	> 256	> 200	> 200	> 200	> 200	> 200	> 200	242 to 243	Cc1ccc(NC(=O)Nc2c(C)cccc2C)cc1 [1ab, 1-(2,6-Dimethylphenyl)-3-p-tolylurea]	> 200	> 200	
32 (≈ 116 µM)	256 (≈ 932 µM)	16 (≈ 58.2 µM)	16 (≈ 58.2 µM)	16 (≈ 58.2 µM)	> 256	> 256	> 256	> 200	> 200	> 200	> 200	> 200	> 200	244 to 245	Cc1cccc(C)c1NC(=O)Nc1ccc(Cl)cc1 [1bc, 1-(2,6-Dimethylphenyl)-3-(4-chlorophenyl)urea]	> 200	> 200	
